Measurements taken from US11529436B2, “Engineered three-dimensional skin tissues, arrays thereof, and methods of making the same” (Organovo, Inc., priority 2014, dated 2022).

Tests used:
Format in all cases: cell-based, human
[1] = test system: bioprinted full thickness skin tissue; test: Lactate dehydrogenase (LDH) activity in media of bioprinted skin tissue, skin irritation test
Excerpt: Bio-ink was generated by a cellular mixture of 100% primary adult human dermal fibroblasts (HDFa) in 8% gelatin (NOVOGEL 2.0) at a concentration of 100 million cells per milliliter. The cell: gelatin ratio was altered to reduce the cellular density of the dermal sheet to better mimic dermal tissue in native skin. Three-dimensional bio-ink constructs were printed by continuous deposition using the NOVOGEN BIOPRINTER platform in a 4 mm×4 mm×0.5 mm base to create a dermal structure resembling a sheet. […] The transwell printing surface contained a polytetrafluoroethylene (PTFE) membrane coated with equimolar mixture of types I and III collagen (bovine) with pores 3 μm in size. Epidermal cell paste containing a mixture of 100% primary neonatal human epidermal keratinocytes (HEKn) was then printed on top of the dermal bio-ink. Cell paste was measured post print at 87.1% viable by trypan exclusion assay. Cell numbers in the deposited epidermal layer was estimated at 60,000 cells by cell counting on a Cell-O-Meter. Immediately following the print, constructs were placed at 4° C. for 10 minutes. Cold media was then added to the outer well of the transwell in a volume of 3 ml. The media used for subsequent growth and maintenance of the skin tissue was a 50:50 ratio of HDFa: HEKn media. The initial volume added was sufficient to submerge the structure. All subsequent media changes used warmed media (37° C.) added to the outer well of the transwell and not to the inner basket. Media was changed 48 hours later and reduced to a volume of 1.5 ml per well to bring the structure to an air-liquid interface (ALI). Media and subsequently changed 48 hours after that (day 4) at a volume of 1.5 ml. […] IL-1α production (R&D Systems) was analyzed in a colorimetric assays per manufacturer's protocol. Media was analyzed for lactate dehydrogenase as a marker for cytotoxicity. IL-1α production was assessed as a complementary endpoint to classic cytotoxicity testing to improve predictability of irritants. […] Viability was measured as fluorescence in the media by conversion of resazurin to resorufin. […]

[2] = test system: bioprinted full thickness skin tissue; test: IL-1α production in media of bioprinted skin tissue (colorimetric assay), skin irritation test
Excerpt: Bio-ink was generated by a cellular mixture of 100% primary adult human dermal fibroblasts (HDFa) in 8% gelatin (NOVOGEL 2.0) at a concentration of 100 million cells per milliliter. The cell: gelatin ratio was altered to reduce the cellular density of the dermal sheet to better mimic dermal tissue in native skin. Three-dimensional bio-ink constructs were printed by continuous deposition using the NOVOGEN BIOPRINTER platform in a 4 mm×4 mm×0.5 mm base to create a dermal structure resembling a sheet. […] The transwell printing surface contained a polytetrafluoroethylene (PTFE) membrane coated with equimolar mixture of types I and III collagen (bovine) with pores 3 μm in size. Epidermal cell paste containing a mixture of 100% primary neonatal human epidermal keratinocytes (HEKn) was then printed on top of the dermal bio-ink. Cell paste was measured post print at 87.1% viable by trypan exclusion assay. Cell numbers in the deposited epidermal layer was estimated at 60,000 cells by cell counting on a Cell-O-Meter. Immediately following the print, constructs were placed at 4° C. for 10 minutes. Cold media was then added to the outer well of the transwell in a volume of 3 ml. The media used for subsequent growth and maintenance of the skin tissue was a 50:50 ratio of HDFa: HEKn media. The initial volume added was sufficient to submerge the structure. All subsequent media changes used warmed media (37° C.) added to the outer well of the transwell and not to the inner basket. Media was changed 48 hours later and reduced to a volume of 1.5 ml per well to bring the structure to an air-liquid interface (ALI). Media and subsequently changed 48 hours after that (day 4) at a volume of 1.5 ml. On day 5, media was changed and further reduced to 1 ml per well and subsequently changed daily. On day 10, skin tissues were subject to a skin irritation test method using 1% TRITON X-100. 1% TRITON X-100 is a known irritant and reference chemical currently used in other 3D skin models. Methods were based on OECD guidelines 439 and 431 for applying human skin models to in vitro skin irritation or corrosion, respectively. On day 10, conditioned media was saved (designated time=0) and 1 ml of fresh media was added to the outer well of the transwell. The printed skin tissue was then treated with 20 μl of PBS as a negative control or with 20 μl of 1% TRITON X-100 as a positive control and known irritant. Test substances were pipetted manually to the apical surface of the tissue. TRITON X-100 was diluted to a 1% aqueous solution in deionized water and sterile filtered through a 20 micron filter before use. […] Media was saved (designated time=1 hour). Samples were then washed extensively by PBS rinsing. […] The media was then changed at 24 hours and at 48 hours post treatment. Total media collected included time points=−48, 0, 1, 24, and 48 hours. IL-1α production (R&D Systems) was analyzed in a colorimetric assays per manufacturer's protocol. Media was analyzed for lactate dehydrogenase as a marker for cytotoxicity. IL-1α production was assessed as a complementary endpoint to classic cytotoxicity testing to improve predictability of irritants. Keratinocytes normally produce and release inflammatory cytokine IL-1α in response to chemical or physical stress. […] Viability was measured as fluorescence in the media by conversion of resazurin to resorufin. […]

[3] = test system: bioprinted full thickness skin tissue; test: Viability of bioprinted skin tissue by alamar blue assay, skin irritation test
Excerpt: Bio-ink was generated by a cellular mixture of 100% primary adult human dermal fibroblasts (HDFa) in 8% gelatin (NOVOGEL 2.0) at a concentration of 100 million cells per milliliter. The cell: gelatin ratio was altered to reduce the cellular density of the dermal sheet to better mimic dermal tissue in native skin. Three-dimensional bio-ink constructs were printed by continuous deposition using the NOVOGEN BIOPRINTER platform in a 4 mm×4 mm×0.5 mm base to create a dermal structure resembling a sheet. […] The transwell printing surface contained a polytetrafluoroethylene (PTFE) membrane coated with equimolar mixture of types I and III collagen (bovine) with pores 3 μm in size. Epidermal cell paste containing a mixture of 100% primary neonatal human epidermal keratinocytes (HEKn) was then printed on top of the dermal bio-ink. Cell paste was measured post print at 87.1% viable by trypan exclusion assay. Cell numbers in the deposited epidermal layer was estimated at 60,000 cells by cell counting on a Cell-O-Meter. Immediately following the print, constructs were placed at 4° C. for 10 minutes. Cold media was then added to the outer well of the transwell in a volume of 3 ml. The media used for subsequent growth and maintenance of the skin tissue was a 50:50 ratio of HDFa: HEKn media. The initial volume added was sufficient to submerge the structure. All subsequent media changes used warmed media (37° C.) added to the outer well of the transwell and not to the inner basket. Media was changed 48 hours later and reduced to a volume of 1.5 ml per well to bring the structure to an air-liquid interface (ALI). Media and subsequently changed 48 hours after that (day 4) at a volume of 1.5 ml. On day 5, media was changed and further reduced to 1 ml per well and subsequently changed daily. On day 10, skin tissues were subject to a skin irritation test method using 1% TRITON X-100. 1% TRITON X-100 is a known irritant and reference chemical currently used in other 3D skin models. Methods were based on OECD guidelines 439 and 431 for applying human skin models to in vitro skin irritation or corrosion, respectively. On day 10, conditioned media was saved (designated time=0) and 1 ml of fresh media was added to the outer well of the transwell. The printed skin tissue was then treated with 20 μl of PBS as a negative control or with 20 μl of 1% TRITON X-100 as a positive control and known irritant. […] IL-1α production (R&D Systems) was analyzed in a colorimetric assays per manufacturer's protocol. Media was analyzed for lactate dehydrogenase as a marker for cytotoxicity. IL-1α production was assessed as a complementary endpoint to classic cytotoxicity testing to improve predictability of irritants. […] Viability was measured as fluorescence in the media by conversion of resazurin to resorufin. […]

CCCCCCCCCCCCOS(=O)(=O)[O-].[Na+] [SDS]
LDH activity higher than PBS [1]: about 1.7 fold
IL-1α production [2]: much stronger response
irritancy under these testing conditions, 5% SDS versus 1% TRITON X-100 [3]: much stronger irritant
viability compared to the PBS control (alamar blue assay) [3]: 2.45%
